Columns and labels:
Type in all cases: in vivo, Arabidopsis thaliana
BSS1 = assay: qRT-PCR of BSS1 expression in wild-type seedlings; settings: WT seedlings on medium with different concentrations of Brz or BL, 7 days; dose-dependent
Experimental: The data represent the mean±s.d. from 4 independent experiments. […] The samples were grown in the same conditions as FIG. 4A for 3 days (scale bar: 5 mm). FIGS. 4C to 4E show the results of determining the BSS1 expression level by qRT-PCR. Wild-type (WT) seedlings grown on medium with different concentrations of Brz (FIG. 4C) and BL (FIG. 4D) in the light for 7 days and dark-grown seedlings exposed to light for 0-7 days (Figure E) were used for analysis of the BSS1 expression level. The data represent the mean±s.d. of 4 independent experiments.
Approximately 10,000 RIKEN GSC Arabidopsis activation-tagging lines (Nakazawa et al., 2003, Activation tagging, a novel tool to dissect the functions of a gene family. Plant J. 34: 741-750) were screened on ½ MS medium containing 3 μM Brz (Asami et al., 2000, Characterization of brassinazole, a triazole-type brassinosteroid biosynthesis inhibitor, Plant Physiol. 123: 93-100). After growth for 7 days in the dark, seedlings with shorter hypocotyls than those of the controls were identified and transferred to soil. […] First-strand cDNA was synthesized with PrimeScript (Takara) and used in quantitative real-time PCR (qRT-PCR). […]

BSS1-GFP = assay: Non-reducing immunoblot analysis of BSS1-GFP oligomer; settings: non-reducing conditions (without DTT); after BL treatment
Experimental: Oligomeric BSS1-GFP and monomeric BSS1-GFP are shown by arrowhead O and arrowhead M, respectively. […] Total lysates were prepared from the transgenic plants and ultracentrifuged to separate the insoluble (precipitation) and soluble (supernatant) fractions. The insoluble fractions were then treated with the indicated surfactants and subjected to further ultracentrifugation. The resulting supernatants and pellets were analyzed by immunoblotting. As a control, the indicated surfactant-treated BIL2-GFP (protein localized to the mitochondria) samples were centrifuged as above.
[…] The proteins were separated by SDS-PAGE (10% acrylamide gel). After electrophoresis, the proteins were electrophoretically transferred to a Hybond ECL nitrocellulose membrane (Amersham). […]

BSS1 pro:GUS = assay: GUS staining of BSS1 pro:GUS transgenic seedlings; settings: 3-day-old seedlings on medium with 3 μM Brz, dark or light
Experimental: The data represent the mean±s.d. from 4 independent experiments. […] The samples were grown in the same conditions as FIG. 4A for 3 days (scale bar: 5 mm). FIGS. 4C to 4E show the results of determining the BSS1 expression level by qRT-PCR. Wild-type (WT) seedlings grown on medium with different concentrations of Brz (FIG. 4C) and BL (FIG. 4D) in the light for 7 days and dark-grown seedlings exposed to light for 0-7 days (Figure E) were used for analysis of the BSS1 expression level. The data represent the mean±s.d. of 4 independent experiments. The seedlings of the BSS1 promoter: GUS transgenic plants were used for the histochemical detection of GUS expression. The samples were stained at 37° C. overnight in GUS staining solution as previously described (Ito and Fukuda, 2002, ZEN1 is a key enzyme in the degradation of nuclear DNA during programmed cell death of tracheary elements. Plant Cell 14: 3201-3211). To test the induction of GUS expression, 3-day-old transgenic seedlings were grown on medium with 3 μM Brz or dimethyl sulfoxide (DMSO) as a control.

Row | Structure (SMILES) | BSS1 expression (BSS1) | amount of the oligomeric form of BSS1-GFP (BSS1-GFP) | BSS1 pro:GUS reporter expression (BSS1 pro:GUS)
1 | CC(C)[C@H](C)[C@@H](O)[C@H](O)[C@@H](C)[C@H]1CC[C@H]2[C@@H]3COC(=O)[C@H]4C[C@H](O)[C@H](O)C[C@]4(C)[C@H]3CC[C@]12C [BL, brassinolide] | decreased | significantly decreased | 
2 | CC(O)(c1ccccc1)C(Cc1ccc(Cl)cc1)n1cncn1 (stereo not shown) [Brz, brassinazole] | increased |  | caused BSS1 expression in the hypocotyls in the dark and in the cotyledons under light and dark conditions

From patent publication US10323254B2, “Method for regulating plant growth” (RIKEN, priority 2015, dated 2019)
